{"source": "patent US20250172542A1", "about": "“METHOD FOR INDUCING ARTIFICIAL AGEING IN A STEM CELL AND USES OF SAID CELL” (Clock Bio Limited, priority 2022, published 2025)", "key": {"[1]": {"test_system": "Bob NGN2 and Bob N2P iNs", "assay": "RT-PCR of neuronal markers in iNeurons treated with or without cumate", "type": "cell-based, human", "conditions": "RT-PCR relative to PBGD1", "experimental": "(§1) NGN2 and NGN2-Progerin iPSCs were dissociated into single cells with Accutase and plated onto PDL/Geltrex coated dishes at a density of 30K cells per cm^2. Forward programming was initiated 24 hours after the split. The induction was performed in DMEM/F-12 supplemented with Glutamax (100×), Non-Essential Amino Acids (100×), 50 μM 2-Mercaptoethanol (Gibco), 1% Penicillin/Streptomycin, 1 μg/mL Dox. After 2 days of induction, the medium was switched to Neurobasal-medium supplemented with Glutamax (100×), B27 (50×), 10 ng/mL BDNF (Peprotech), 10 ng/mL NT3 (R&D Systems), 1% Penicillin/Streptomycin, and 1 μg/mL Dox. In order to age NGN2-Progerin iNeurons (iNs), at D7 post induction, cumate was added to the medium for 7 days. Pre-aged iNs were induced as described above from 5 days aged NGN-Progerin iPSCs, no additional cumate was added during the induction process.\ncDNA synthesis was performed with the Maxima First Strand cDNA Synthesis Kit (Thermo Fisher Scientific). PowerUp SYBR Green Master Mix (Thermo Fisher Scientific) was used for RT-PCR. Samples were run on the QuantStudio 6 Flex Real-Timer PCR System machine (Applied Biosystems). All samples were analysed in technical duplicates and normalised to the house-keeping gene Porphobilinogen Deaminase 1 (PBGD1). Results were analysed with the ΔΔCt method. […]"}, "[2]": {"test_system": "GFP-Progerin expression under the cumate switch (CymR/CuO)", "assay": "Cumate dose response assay (GFP-Progerin expression in iNeurons)", "type": "cell-based, human", "conditions": "neurons induced with doxycycline and cumate", "experimental": "as §1\nIn order to allow for a separate control of NGN2 and progerin expression, the OPTi-OX technology was used and a dual system designed which is based on both the TetOn (Baron and Bujard (2000)) and the cumate switch (Mullick et al. (2006); Sato et al. (2020); and Seo and Schmidt-Dannert (2019)) inducible systems. This new system was referred to as (Opti-OX)^2. The cumate repressor (CymR) was first cloned into the original ROSA26 targeting vector, linked by a 2A sequence to rtTA (FIGS. 7A-F). […]"}}, "data": [{"smiles": "CC(C)c1ccc(C(=O)O)cc1", "note": "[cumate]", "values": [{"measurement": "effect of cumate itself on gene expression (MAP2 and synapsin-1 downregulation)", "setting": "[1]", "result": "not responsible for the changes seen in gene expression"}, {"measurement": "GFP expression as a function of cumate dose", "setting": "[2]", "result": "titrated by adjusting the dose"}]}]}
